Measured values taken from patent publication US20230125667A1, “NOVEL TDZD ANALOGS AS AGENTS THAT DELAY, PREVENT, OR REVERSE AGE-ASSOCIATED DISEASES AND AS ANTI-CANCER AND ANTILEUKEMIC AGENTS” (United States Government as represented by the Department …, priority 2020, published 2023).

Key:
DU-145 = assay: NCI-60 growth inhibition: DU-145 (Prostate Cancer); format: cell-based, human
SK-MEL-5 = assay: NCI-60 growth inhibition: SK-MEL-5 (Melanoma); format: cell-based, human
IGROV1 = assay: NCI-60 growth inhibition: IGROV1 (Ovarian Cancer); format: cell-based, human
MCF7 = assay: NCI-60 growth inhibition: MCF7 (Breast Cancer); format: cell-based, human
HL-60(TB) = assay: NCI-60 growth inhibition: HL-60(TB) (Leukemia); format: cell-based, human; settings: HL-60(TB) (Leukemia); read-out: GI50
COLO 205 = assay: NCI-60 growth inhibition: COLO 205 (Colon Cancer); format: cell-based, human
U251 = assay: NCI-60 growth inhibition: U251 (CNS Cancer); format: cell-based, human
UO-31 = assay: NCI-60 growth inhibition: UO-31 (Renal Cancer); format: cell-based, human
NCI-H460 = assay: NCI-60 growth inhibition: NCI-H460 (Non-Small-Cell Lung Cancer); format: cell-based, human
NCI-H522 = assay: NCI-60 growth inhibition: NCI-H522 (Non-Small-Cell Lung Cancer)
HS 578T = assay: NCI-60 growth inhibition: HS 578T (Breast Cancer); format: cell-based, human
HCT-15 = assay: NCI-60 growth inhibition: HCT-15 (Colon Cancer); format: cell-based, human
UACC-257 = assay: NCI-60 growth inhibition: UACC-257 (Melanoma); format: cell-based, human
HT29 = assay: NCI-60 growth inhibition: HT29 (Colon Cancer); format: cell-based, human
T-47D = assay: NCI-60 growth inhibition: T-47D (Breast Cancer); format: cell-based, human
SR = assay: NCI-60 growth inhibition: SR (Leukemia); format: cell-based, human
SF-268 = assay: NCI-60 growth inhibition: SF-268 (CNS Cancer); format: cell-based, human
SW-620 = assay: NCI-60 growth inhibition: SW-620 (Colon Cancer); format: cell-based, human
MDA-MB-468 = assay: NCI-60 growth inhibition: MDA-MB-468 (Breast Cancer); format: cell-based, human; settings: MDA-MB-468 (Breast Cancer); read-out: GI50
A498 = assay: NCI-60 growth inhibition: A498 (Renal Cancer); format: cell-based, human
CAKI-1 = assay: NCI-60 growth inhibition: CAKI-1 (Renal Cancer); format: cell-based, human
OVCAR-4 = assay: NCI-60 growth inhibition: OVCAR-4 (Ovarian Cancer); format: cell-based, human
OVCAR-8 = assay: NCI-60 growth inhibition: OVCAR-8 (Ovarian Cancer); format: cell-based, human
TK-10 = assay: NCI-60 growth inhibition: TK-10 (Renal Cancer); format: cell-based, human
[1] = test system: MV4-11 cell line (myelomonocytic leukemia); settings: MV4-11 cells; for LD50, 7AAD (μM) 24 h / LD50, Alamar blue (μM) 24 h / LD50, YOPRO (μM) 24 h: MMB-TDZD analogs (Table 2)
BT-549 = assay: NCI-60 growth inhibition: BT-549 (Breast Cancer); format: cell-based, human
786-0 = assay: NCI-60 growth inhibition: 786-0 (Renal Cancer); format: cell-based, human
MALME-3M = assay: NCI-60 growth inhibition: MALME-3M (Melanoma); format: cell-based, human
EKVX = assay: NCI-60 growth inhibition: EKVX (Non-Small-Cell Lung Cancer); format: cell-based, human
CCRF-CEM = assay: NCI-60 growth inhibition: CCRF-CEM (Leukemia); format: cell-based, human
HOP-92 = assay: NCI-60 growth inhibition: HOP-92 (Non-Small-Cell Lung Cancer); format: cell-based, human
SK-MEL-28 = assay: NCI-60 growth inhibition: SK-MEL-28 (Melanoma); format: cell-based, human
SN12C = assay: NCI-60 growth inhibition: SN12C (Renal Cancer); format: cell-based, human
UACC-62 = assay: NCI-60 growth inhibition: UACC-62 (Melanoma); format: cell-based, human
SNB-75 = assay: NCI-60 growth inhibition: SNB-75 (CNS Cancer); format: cell-based, human
MOLT-4 = assay: NCI-60 growth inhibition: MOLT-4 (Leukemia); format: cell-based, human
LOX IMVI = assay: NCI-60 growth inhibition: LOX IMVI (Melanoma); format: cell-based, human
OVCAR-3 = assay: NCI-60 growth inhibition: OVCAR-3 (Ovarian Cancer); format: cell-based, human
PC-3 = assay: NCI-60 growth inhibition: PC-3 (Prostate Cancer); format: cell-based, human
MDA-MB-231/ATCC = assay: NCI-60 growth inhibition: MDA-MB-231/ATCC (Breast Cancer); format: cell-based, human
RPMI-8226 = assay: NCI-60 growth inhibition: RPMI-8226 (Leukemia); format: cell-based, human
SNB-19 = assay: NCI-60 growth inhibition: SNB-19 (CNS Cancer); format: cell-based, human
OVCAR-5 = assay: NCI-60 growth inhibition: OVCAR-5 (Ovarian Cancer); format: cell-based, human
MDA-MB-435 = assay: NCI-60 growth inhibition: MDA-MB-435 (Melanoma); format: cell-based, human
M14 = assay: NCI-60 growth inhibition: M14 (Melanoma); format: cell-based, human
ACHN = assay: NCI-60 growth inhibition: ACHN (Renal Cancer); format: cell-based, human
SK-MEL-2 = assay: NCI-60 growth inhibition: SK-MEL-2 (Melanoma); format: cell-based, human
NCI-H23 = assay: NCI-60 growth inhibition: NCI-H23 (Non-Small-Cell Lung Cancer); format: cell-based, human
SF-539 = assay: NCI-60 growth inhibition: SF-539 (CNS Cancer); format: cell-based, human
HCT-116 = assay: NCI-60 growth inhibition: HCT-116 (Colon Cancer)
K-562 = assay: NCI-60 growth inhibition: K-562 (Leukemia); format: cell-based, human
RXF 393 = assay: NCI-60 growth inhibition: RXF 393 (Renal Cancer); format: cell-based, human
[2] = test system: human leukemia cell lines; assay: NCI-60 growth inhibition, leukemia cell lines; settings: NCI panel
[3] = NCI-H522 (Non-Small-Cell Lung Cancer)

Question: Which GI50 (DU-145) does the source give for `C=C1C(=O)O[C@H]2[C@H]1CC/C(COC(=O)NCc1ccc(Cn3c(=O)sn(CCCCC)c3=O)cc1)=C\CC[C@@]1(C)O[C@@H]21` [BSK-218] here?
Answer: 1.68 µM

Question: And the GI50 (SK-MEL-5)?
Answer: 3.92 µM

Question: And the GI50 (IGROV1)?
Answer: 2.11 µM

Question: And the GI50 (MCF7)?
Answer: 1.79 µM

Question: And the GI50 (HL-60(TB))?
Answer: 1.1 µM

Question: And the GI50 (COLO 205)?
Answer: 1.78 µM

Question: What about the GI50 (U251) of the same compound?
Answer: 2.2 µM

Question: And the GI50 (UO-31)?
Answer: 1.46 µM

Question: And the GI50 (NCI-H460)?
Answer: 3.42 µM

Question: What about the GI50 (NCI-H522; [3]) of the same compound?
Answer: 1.59 µM

Question: What about the GI50 (HS 578T) of the same compound?
Answer: 2.79 µM

Question: And the GI50 (HCT-15)?
Answer: 1.66 µM

Question: And the GI50 (UACC-257)?
Answer: 1.57 µM

Question: And the GI50 (HT29)?
Answer: 2.09 µM

Question: And the GI50 (T-47D)?
Answer: 1.75 µM

Question: And the GI50 (SR)?
Answer: 2.99 µM

Question: What about the GI50 (SF-268) of the same compound?
Answer: 1.88 µM

Question: What about the GI50 (SW-620) of the same compound?
Answer: 1.31 µM

Question: And the GI50 (MDA-MB-468)?
Answer: 1.19 µM

Question: What about the GI50 (A498) of the same compound?
Answer: 2.91 µM

Question: And the GI50 (CAKI-1)?
Answer: 2.84 µM

Question: And the GI50 (OVCAR-4)?
Answer: 1.62 µM

Question: And the GI50 (OVCAR-8)?
Answer: 2.26 µM

Question: What about the GI50 (TK-10) of the same compound?
Answer: 1.96 µM

Question: What about the “LD50, 7AAD (μM) 24 h” value [1] of the same compound?
Answer: 1.3 µM

Question: What about the “LD50, Alamar blue (μM) 24 h” value [1] of the same compound?
Answer: 0.8 µM

Question: And the “LD50, YOPRO (μM) 24 h” value [1]?
Answer: 1.07 µM

Question: And the LD50 ([1]; values in text)?
Answer: 760 nM

Question: What about the GI50 (BT-549) of the same compound?
Answer: 1.91 µM

Question: What about the GI50 (786-0) of the same compound?
Answer: 1.98 µM

Question: What about the GI50 (MALME-3M) of the same compound?
Answer: 1.61 µM

Question: And the GI50 (EKVX)?
Answer: 1.85 µM

Question: What about the GI50 (CCRF-CEM) of the same compound?
Answer: 0.36 µM

Question: And the GI50 (HOP-92)?
Answer: 1.38 µM

Question: And the GI50 (SK-MEL-28)?
Answer: 1.85 µM

Question: What about the GI50 (SN12C) of the same compound?
Answer: 1.71 µM

Question: What about the GI50 (UACC-62) of the same compound?
Answer: 1.59 µM

Question: And the GI50 (SNB-75)?
Answer: 1.59 µM

Question: What about the GI50 (MOLT-4) of the same compound?
Answer: 5.9 µM

Question: What about the GI50 (LOX IMVI) of the same compound?
Answer: 1.59 µM

Question: And the GI50 (OVCAR-3)?
Answer: 1.41 µM

Question: And the GI50 (PC-3)?
Answer: 1.92 µM

Question: What about the GI50 (MDA-MB-231/ATCC) of the same compound?
Answer: 1.72 µM

Question: What about the GI50 (RPMI-8226) of the same compound?
Answer: 1.12 µM

Question: What about the GI50 (SNB-19) of the same compound?
Answer: 5.06 µM

Question: And the GI50 (OVCAR-5)?
Answer: 2.01 µM

Question: And the GI50 (MDA-MB-435)?
Answer: 1.71 µM

Question: What about the GI50 (M14) of the same compound?
Answer: 1.89 µM

Question: And the GI50 (ACHN)?
Answer: 1.68 µM

Question: And the GI50 (SK-MEL-2)?
Answer: 2.42 µM

Question: And the GI50 (NCI-H23)?
Answer: 1.94 µM

Question: And the GI50 (SF-539)?
Answer: 1.64 µM

Question: And the GI50 (HCT-116; HCT-116 (Colon Cancer))?
Answer: 1.73 µM

Question: What does the source list for `C=C1C(=O)O[C@H]2[C@H]1CC/C(COC(=O)NCc1ccc(Cn3c(=O)sn(CCCC#N)c3=O)cc1)=C\CC[C@@]1(C)O[C@@H]21` [BSK-226]?
Answer: GI50 (DU-145): 1.64 µM; GI50 (SK-MEL-5): 3.72 µM; GI50 (IGROV1): 1.78 µM; GI50 (MCF7): 1.71 µM; GI50 (HL-60(TB)): 0.96 µM; GI50 (COLO 205): 2.04 µM; GI50 (U251): 5.05 µM; GI50 (UO-31): 1.4 µM; GI50 (NCI-H460): 11.3 µM; GI50 (NCI-H522; [3]): 0.53 µM; GI50 (NCI-H522; NCI-H522 (non-small-cell lung cancer)): 0.53 µM; GI50 (HS 578T): 5.64 µM; GI50 (HCT-15): 1.94 µM; GI50 (UACC-257): 1.61 µM; GI50 (HT29): 2.46 µM; GI50 (T-47D): 1.97 µM; GI50 (K-562): 0.72 µM; GI50 (SF-268): 2.63 µM; GI50 (SW-620): 1.23 µM; GI50 (MDA-MB-468): 1.53 µM; GI50 (A498): 2.83 µM; GI50 (CAKI-1): 2.05 µM; GI50 (OVCAR-4): 1.67 µM; GI50 (OVCAR-8): 2.32 µM; GI50 (TK-10): 1.75 µM; LD50, 7AAD (μM) 24 h [1]: 0.75 µM; LD50, Alamar blue (μM) 24 h [1]: 0.45 µM; LD50, YOPRO (μM) 24 h [1]: 0.37 µM; GI50 (BT-549): 1.48 µM; GI50 (786-0): 1.48 µM; GI50 (MALME-3M): 1.34 µM; GI50 (EKVX): 2.82 µM; GI50 (CCRF-CEM): 0.57 µM; GI50 (HOP-92): 1.1 µM; GI50 (SK-MEL-28): 1.69 µM; GI50 (SN12C): 1.36 µM; GI50 (RXF 393): 1.35 µM; GI50 (UACC-62): 1.44 µM; GI50 (SNB-75): 2.03 µM; GI50 (MOLT-4): 1.5 µM; GI50 (LOX IMVI): 1.58 µM; GI50 (OVCAR-3): 0.77 µM; GI50 (PC-3): 2.13 µM; GI50 (MDA-MB-231/ATCC): 1.72 µM; GI50 (RPMI-8226): 0.76 µM; GI50 (SNB-19): 4.84 µM; GI50 (OVCAR-5): 2.64 µM; GI50 (MDA-MB-435): 1.8 µM; GI50 (M14): 1.93 µM; GI50 (ACHN): 1.66 µM; GI50 (SK-MEL-2): 4.83 µM; GI50 (NCI-H23): 2.33 µM; GI50 (SF-539): 1.73 µM; potency against leukemia cell lines (GI50 <1.0) [2]: comparably potent against 4 out of 5 leukemia cell lines; GI50 (HCT-116; HCT-116 (Colon Cancer)): 0.56 µM; GI50 (HCT-116; HCT-116 (colon cancer)): 0.56 µM
